This is an account of results in BindingDB's records for patent US20240307415 (Jiangsu Simcere Pharmaceutical, 2024).

In the assay the target is T1, Glucocorticoid receptor (Homo sapiens, UniProt P04150).
T1 sequence (P04150 whole entry): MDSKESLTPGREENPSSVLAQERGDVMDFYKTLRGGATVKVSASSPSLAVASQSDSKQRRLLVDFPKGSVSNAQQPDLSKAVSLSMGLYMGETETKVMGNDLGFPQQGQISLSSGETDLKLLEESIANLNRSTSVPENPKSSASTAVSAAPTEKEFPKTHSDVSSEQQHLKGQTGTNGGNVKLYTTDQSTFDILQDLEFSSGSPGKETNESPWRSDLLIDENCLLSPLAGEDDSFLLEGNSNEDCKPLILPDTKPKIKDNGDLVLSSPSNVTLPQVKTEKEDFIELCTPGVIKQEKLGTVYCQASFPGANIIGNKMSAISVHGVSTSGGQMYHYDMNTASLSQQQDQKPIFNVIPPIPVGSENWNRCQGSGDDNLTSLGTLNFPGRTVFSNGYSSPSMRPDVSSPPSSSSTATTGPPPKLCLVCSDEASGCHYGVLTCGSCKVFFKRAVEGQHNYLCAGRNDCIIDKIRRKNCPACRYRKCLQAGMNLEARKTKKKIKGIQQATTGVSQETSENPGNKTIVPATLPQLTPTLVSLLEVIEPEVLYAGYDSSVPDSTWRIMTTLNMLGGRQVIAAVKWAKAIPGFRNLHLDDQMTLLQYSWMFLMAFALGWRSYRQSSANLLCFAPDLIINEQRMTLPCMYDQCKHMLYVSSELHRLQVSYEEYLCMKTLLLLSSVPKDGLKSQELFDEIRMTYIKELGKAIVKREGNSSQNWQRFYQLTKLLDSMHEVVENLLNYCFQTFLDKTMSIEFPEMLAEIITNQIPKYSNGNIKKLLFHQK
The experiment in a line: Binding Activity of Compound of the Present Invention to Glucocorticoid Receptor GR. The procedure:
The binding activity of the compound to GR was determined using the Polarscreen Glucocorticoid Receptor Assay Kit, Red (brand: Thermo, Cat. No: A15898). […] The highest concentration was 100 μM, 8 concentrations in total.

As a reminder, the EC50 is the midpoint of the concentration-response curve. The low end stands for a more potent agent, the high end for a less potent agent. Take `C[C@]12C=CC(=O)C=C1CC[C@@H]1[C@@H]2[C@@H](O)C[C@@]2(C)[C@H]1C[C@H]1O[C@@H](c3ccc(Cc4ccc5cc[nH]c5c4)cc3)O[C@]12C(=O)CO` [US20240307415, Compound 003]: the EC50 was 121 nM.
